One may read the Ki as the dissociation constant of the complex between target and ligand, obtained from inhibition or displacement.

Bounds are passed on as bounds.

In this experiment the target is CDK2 (human) (UniProt P24941). Nature of the experiment: Enzyme Assay.
`Cc1c(-c2ccnc(Nc3cccc(NS(C)(=O)=O)c3)n2)sc(=O)n1C` came in with a Ki of 30 nM.
In the case of `COc1cc(Cl)ccc1Nc1nccc(-c2sc(=O)n(C)c2C)n1` it was 2230 nM; in that of `COc1ccc(Nc2nccc(-c3sc(=O)n(C)c3C)n2)cc1`, 700 nM; in that of `CCOc1ccccc1Nc1nccc(-c2sc(=O)n(C)c2C)n1`, more than 10000 nM.
In the case of `Cc1c(-c2ccnc(Nc3ccccc3C(F)(F)F)n2)sc(=O)n1C` it was more than 10000 nM.
In the case of `Cc1c(-c2ccnc(Nc3ccccc3)n2)sc(=O)n1C` it was 40 nM.
As to `COc1ccccc1Nc1nccc(-c2sc(=O)n(C)c2C)n1`, the inhibition constant (Ki) came out at 2470 nM.
In the case of `COc1ccc(Nc2nccc(-c3sc(=O)n(C)c3C)n2)c(OC)c1` it was more than 10000 nM; in that of `Cc1cc(F)ccc1Nc1nccc(-c2sc(=O)n(C)c2C)n1`, 490 nM.
In the case of `CC(=O)c1cccc(Nc2nccc(-c3sc(=O)n(C)c3C)n2)c1` it was 20 nM; in that of `Cc1c(Nc2nccc(-c3sc(=O)n(C)c3C)n2)cccc1NS(C)(=O)=O`, 190 nM; in that of `Cc1c(-c2ccnc(Nc3ccccc3OC(F)F)n2)sc(=O)n1C`, 5360 nM.
In the case of `CCc1ccc(Nc2nccc(-c3sc(=O)n(C)c3C)n2)cc1` it was 50 nM; in that of `Cc1ccc(Nc2nccc(-c3sc(=O)n(C)c3C)n2)cc1`, 40 nM; in that of `CCc1ccccc1Nc1nccc(-c2sc(=O)n(C)c2C)n1`, 1230 nM.
For the molecule `Cc1cccc(Nc2nccc(-c3sc(=O)n(C)c3C)n2)c1`, the Ki is 20 nM.
In the case of `COc1cccc(Nc2nccc(-c3sc(=O)n(C)c3C)n2)c1` it was 70 nM; in that of `Cc1ccccc1Nc1nccc(-c2sc(=O)n(C)c2C)n1`, 460 nM.

The record behind these values is the Kinase Knowledgebase extract (Sharma et al. 2016).
